These results are taken from patent US20250387270A1, “DEVICES AND METHODS FOR WOUND TREATMENT” (APPLIED TISSUE TECHNOLOGIES LLC, priority 2016, published 2025).

For one series, the system named is common bacteria. The settings on record: typical value for common bacteria; cited from earlier work.
Series [1] is described as follows: Stability of antibiotic drug activity in 0.5% (agarose) hydrogel over time. It is filed as physicochemical. The settings on record: antibiotic in 0.5% (agarose) hydrogel, compare with original concentration. From the text: According to Table 1, gel-therapeutic agent preparations comprising an antibiotic and a 0.5% (agarose) hydrogel may be stable for up to one week. Drugs dissolve passively into the gel and stay stable over time. In some embodiments, the gel-therapeutic agent preparation may further comprise saline. The gel may be biocompatible, meaning that it is structurally similar to the extracellular matrix in tissues. The gel may be flowable, allowing either for, for example, casting into a mold or injection via needle through a port. The loading of the […] agent preparation in the device may allow consistent and uniform contact with the skin even with patient movement, maintaining continuous delivery of the therapeutic agent to the underlying tissue. The gel-therapeutic agent preparation may prevent loss of the therapeutic agent in the event of a minor leak in the adhesive of the device.

Consider `CN[C@H](CC(C)C)C(=O)N[C@H]1C(=O)N[C@@H](CC(N)=O)C(=O)N[C@H]2C(=O)N[C@H]3C(=O)N[C@H](C(=O)N[C@H](C(=O)O)c4cc(O)cc(O)c4-c4cc3ccc4O)[C@H](O)c3ccc(c(Cl)c3)Oc3cc2cc(c3O[C@@H]2O[C@H](CO)[C@@H](O)[C@H](O)[C@H]2O[C@H]2C[C@](C)(N)[C@H](O)[C@H](C)O2)Oc2ccc(cc2Cl)[C@H]1O` [Vancomicin], for which the MIC result with common bacteria is reported as “around 2 micrograms per ml”.

Consider Gentamicin, for which the “Drug activity, 3 days” value in series [1] (3 days) came to 2.41 µg/mL. Also, in series [1] (7 days), the “Drug activity, 7 days” value came to 2.04 µg/mL. Further, the MIC result in the series on common bacteria is on record as “around 2 micrograms per ml”.
